# Results reported in patent US11298346B2, “Methods for treatment of fibrotic diseases” (Beta Cat Pharmaceuticals, Inc., priority 2017, dated 2022).
# Values joined by “and” are separate entries in the source; they are usually repeats but may differ in a detail not shown here. Equal entries are not always repeated.
# Legend:
# [1] = tested on: primary palmar fascia fibroblasts derived from the fibrotic palmar fascia (DD249 cells); assay: Alamar Blue proliferation/viability assay, DD249 cells; assay type: cell-based, human; conditions: for proliferation/viability: DD249 cells, 48 and 72 hrs relative to 24 hrs
# Experimental: (§1) Tegavivint (BC-2059) powder was reconstituted it in 100% dimethyl sulfoxide (DMSO) to a 10_mM stock solution. The stock was diluted to 100 nM in serum-free media (α minimal essential medium, αMEM), and further diluted to 100 pM in serum-free αMEM immediately before the analyses were performed. Serial dilutions from 100 pM down to 0.78 pM were assessed in various assays. 0.001% DMSO in αMEM was used as the vehicle control, and αMEM alone was used as an untreated control, in a subset of analyses.
# (§2) Proliferation/viability analyses were performed in triplicate on primary palmar fascia fibroblasts derived from the fibrotic palmar fascia (DD cells) of 2 patients with Dupuytren's disease (DD249, DD77) and syngeneic primary palmar fascia fibroblasts derived from visibly non-fibrotic palmar fascia (PF cells) from these patients (PF249, PF77). Cells were cultured on type-1 collagen coated 96 well trays for these analyses to better replicate substrate interactions in vivo. Two independent assays were used for these analyses: Alamar Blue assays for analyses up to 72 hrs in cells derive from 1 patient, and Water Soluble Tetrazolium-(WST-1) assays for analyses up to 24 hrs in cells derived from the other patients. Significant effects of treatment on proliferation over time were detected by ANOVA repeated measures.
# [2] = tested on: cell lines derived from chromic myeloid leukemia (CML) patients and cell lines and primary cells derived from myeloproliferative neoplasm (MPN) patients; conditions: background statement; cited from earlier work
# [3] = tested on: bleomycin-induced idiopathic pulmonary fibrosis (IPF); assay: Nebulized tegavivint nanosuspension in mouse model of bleomycin-induced idiopathic pulmonary fibrosis; assay type: in vivo, C57BL/6 male mice
# Experimental: The purpose of this experiment was to investigate tegavivint nanosuspension in a mouse model of bleomycin-induced idiopathic pulmonary fibrosis (IPF). Test articles 10 were as follows:
# Tegavivint (BC2059) in a nano-milled suspension 25 mg/mL in 0.625% poloxamer 188 and 10% sorbitol. The compound was refrigerated at about 4° C.
# Nebulizing equipment was Altera ultrasonic eRapid machine nebulizer (model #678G1002).
# Animals were 8-12 week old C57BL/6 male mice (Jackson Lab, Bar Harbor, Me.).
# Murine model of pulmonary fibrosis was induced by intratracheally (IT) injected bleomycin (APP Pharmaceuticals, Schaumburg, Ill.). One dose of 0.025 U bleomycin dissolved in 50 microliters of Saline 0.9%, or PBS as control was administered to each animal on day 0.
# Tegavivint nanosuspension was applied to Group 3 in the form of aerosols, through the method of whole body exposure. The mice were placed inside a plastic box. This box was sealed and connected by one of its sides to the outlet of the nebulizer device, and on the other side to a system of closed water. The whole procedure was carried out inside the fume hood of the animal room. In each treatment session, 5 ml of 25 mg/ml Tegavivint (125 mg) was nebulized over 15 min to each group of 4-5 mice in the chamber. To increase exposure of the mice to the aerosol, Tegavivint that precipitated in the aerosol chamber was collected with a syringe and re-nebulized a second and a third time. Mice were nebulized twice a day between day 5 and day 21 after administration of bleomycin. Group 1 and 2 received nebulized vehicle 5 ml in the same manner.
# The body weight of animals was recorded on Days 0, 5, 8, 12, 16, 19, and 21.
# Measurements of lung mechanics were performed on Day 21 as previously described (Morales-Nebreda L, et al. AJRCMB 2015) on Day 21 using a FlexiVent mouse ventilator (Scireq, Montreal, PQ, Canada) according to the protocols established by Scireq. A standard ventilation history for each mouse was obtained with three total lung capacity maneuvers before the forced oscillation and quasistatic pressure-volume curve protocols that were used to calculate airway resistance, dynamic and quasistatic tissue compliance, and elastance.
# On Day 21 all animals were sacrificed and lungs were harvested. Total lung collagen content was evaluated using the Hydroxyproline Assay as previously described (Morales-Nebreda L, et al. AJRCMB 2015). In brief, mouse lungs were harvested and suspended in 1 ml of 0.5 M acetic acid and then homogenized, first with a tissue homogenizer (60 s on ice) and then using 15 strokes in a Dounce homogenizer (on ice). The resulting homogenate was spun (12,000×g) for 10 minutes, and the supernatant was used for subsequent analyses. Collagen standards were prepared in 0.5 M acetic acid using rat tail collagen (Sigma-Aldrich, St. Louis, Mo.). Picrosirius red dye was prepared by mixing 0.2 g of Sirius red F3B (Sigma-Aldrich) with 200 ml of […]; 1 ml of the Picrosirius red dye was added to 100 μl of the collagen standard or the lung homogenates and then mixed continuously at room temperature on an orbital shaker for 30 minutes. The precipitated collagen was then pelleted and washed once with 0.5 M acetic acid (12,000×g for 15 min each). The resulting pellet was resuspended in 1 ml of 0.5 M NaOH and Sirius red staining was quantified spectrophotometrically (540 nm) using a colorimetric plate reader (Bio-Rad, Hercules, Calif.).
# [4] = tested on: syngeneic primary palmar fascia fibroblasts derived from visibly non-fibrotic palmar fascia (PF249 cells); assay: Alamar Blue proliferation/viability assay, PF249 cells; assay type: cell-based, human; conditions: for proliferation/viability: PF249 cells, 48 and 72 hrs relative to 24 hrs
# Experimental: as §1, §2
# [5] = Group 3, inhaled tegavivint after bleomycin injury
# [6] = Group 3: IT bleomycin Day 0, 5 ml of 25 mg/ml tegavivint aerosol BID Day 5-21, Day 21, individual animals
substance,measurement,setting,value
Tegavivint,proliferation/viability,[1]; 25 pM,viable and able to proliferate to significantly greater cell numbers
same,proliferation/viability,[1]; 50 pM,unable to proliferate
same,therapeutic window concentration (proliferation of fibrosis-derived but not syngeneic palmar fascia derived cells inhibited),"[1]; DD versus PF cells, preliminary analyses",approximately 50 pM
same,cytotoxic concentrations,"[1]; fibrosis-derived fibroblasts, both proliferation/viability assays and visual inspection",> 100 pM
same,effects on cell proliferation/viability,[1]; ≤25 pM,did not identify any consistent effects
same,apoptosis and growth inhibition,[2],undergo apoptosis and growth inhibition
same,body weight loss caused by bleomycin induced lung injury,"[3]; Group 3, inhaled tegavivint",reversed the body weight loss
same,lung compliance,[3]; [5],reversed the compliance values to near those of the sham-treated controls
same,total lung collagen content (Hydroxyproline assay),[3]; [5],reversed this change and the collagen levels are closed to sham-treated controls
same,Compliance (ml/cm H20),[3]; [6],0.05515 ml/cm H20 and 0.05604 ml/cm H20 and 0.06762 ml/cm H20 and 0.0543 ml/cm H20 and 0.0561 ml/cm H20
same,Hydroxyproline (μg/half lung),[3]; [6],70.016 μg/half lung and 39.44 μg/half lung and 45.68 μg/half lung and 58.784 μg/half lung and 64.296 μg/half lung
same,Change in body weight (%),"[3]; Group 3: IT bleomycin Day 0, 5 ml of 25 mg/ml tegavivint aerosol BID Day 5-21, individual animals",−2.83% and 5.2% and 7.3% (2×) and 7.9%
same,proliferation/viability,[4]; 25 pM,proliferated to significantly greater cell numbers
same,proliferation/viability,[4]; 50 pM,proliferated to significantly greater cell numbers
same,cytotoxic concentrations,"[4]; syngeneic fibroblasts from visibly unaffected palmar fascia, both proliferation/viability assays and visual inspection",> 100 pM
